Source: ChEMBL document CHEMBL5550170, “Discovery of novel benzimidazole derivatives as selective and reversible monoamine oxidase B inhibitors for Parkinson's disease treatment” (Eur J Med Chem, 2024)
pIC50: −log10 of the molar value.

Key:
[1] = target: T1, Amine oxidase [flavin-containing] B (Homo sapiens, UniProt P27338); conditions: 0.5 h, read-out: INH
T1 sequence (P27338 whole entry): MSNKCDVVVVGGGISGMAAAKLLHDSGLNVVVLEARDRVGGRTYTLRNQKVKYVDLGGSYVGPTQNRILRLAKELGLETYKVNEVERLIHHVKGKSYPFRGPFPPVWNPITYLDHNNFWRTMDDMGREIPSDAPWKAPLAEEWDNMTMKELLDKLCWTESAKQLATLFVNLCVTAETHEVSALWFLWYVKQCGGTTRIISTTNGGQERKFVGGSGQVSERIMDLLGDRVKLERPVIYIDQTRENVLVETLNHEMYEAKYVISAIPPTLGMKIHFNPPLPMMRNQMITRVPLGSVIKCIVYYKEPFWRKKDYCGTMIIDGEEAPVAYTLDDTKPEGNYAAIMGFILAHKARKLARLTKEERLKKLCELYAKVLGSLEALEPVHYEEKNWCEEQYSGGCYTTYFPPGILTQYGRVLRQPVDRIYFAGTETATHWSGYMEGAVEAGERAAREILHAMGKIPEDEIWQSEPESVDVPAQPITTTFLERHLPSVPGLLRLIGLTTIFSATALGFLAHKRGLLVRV
Description: Inhibition of human MAO-B at 1 uM preincubated with compound for 10 mins followed by substrate addition and measured after 30 mins relative to control

[2] = target: T1, Amine oxidase [flavin-containing] B
Description: Inhibition of human MAO-B preincubated with compound for 10 mins followed by substrate addition and measured after 30 mins

[3] = target: T2, Amine oxidase [flavin-containing] A (Homo sapiens, UniProt P21397)
T2 sequence (P21397 whole entry): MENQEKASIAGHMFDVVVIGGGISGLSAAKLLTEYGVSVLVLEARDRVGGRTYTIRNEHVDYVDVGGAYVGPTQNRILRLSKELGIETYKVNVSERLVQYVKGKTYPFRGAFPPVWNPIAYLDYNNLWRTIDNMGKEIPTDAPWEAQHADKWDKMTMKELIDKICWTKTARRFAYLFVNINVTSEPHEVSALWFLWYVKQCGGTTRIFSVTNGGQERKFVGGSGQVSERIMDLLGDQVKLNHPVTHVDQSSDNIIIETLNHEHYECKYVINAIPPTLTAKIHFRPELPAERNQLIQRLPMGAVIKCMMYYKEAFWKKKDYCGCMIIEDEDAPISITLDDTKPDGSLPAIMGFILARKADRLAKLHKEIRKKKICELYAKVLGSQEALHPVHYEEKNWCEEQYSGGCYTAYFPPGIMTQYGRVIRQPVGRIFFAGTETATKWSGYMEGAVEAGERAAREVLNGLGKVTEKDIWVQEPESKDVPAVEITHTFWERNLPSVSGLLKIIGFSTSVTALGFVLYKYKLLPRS
Description: Inhibition of human MAO-A preincubated with compound for 10 mins followed by substrate addition and measured after 30 mins

Cc1cccc(COc2ccc3[nH]c(CC(N)=O)nc3c2)c1
inhibition at 1 µM [1]: 52.7% | pIC50 [2]: 6.21

NC(=O)Cc1nc2cc(OCc3cccc(F)c3)ccc2[nH]1
pIC50 [3]: 4.30 | inhibition at 1 µM [1]: 67.5% | pIC50 [2]: 6.90

Cc1nc2cc(OCc3cccc(F)c3)ccc2[nH]1
inhibition at 1 µM [1]: 2.8%

NC(=O)Cc1nc2cc(C(=O)Nc3ccc(F)cc3)ccc2[nH]1
inhibition at 1 µM [1]: 44.4%

NC(=O)Cc1nc2cc(C(=O)Nc3ccc(Cl)cc3)ccc2[nH]1
inhibition at 1 µM [1]: 38.4%

Cc1cccc(NC(=O)c2ccc3[nH]c(CC(N)=O)nc3c2)c1
inhibition at 1 µM [1]: 33.7%

COc1cccc(NC(=O)c2ccc3[nH]c(CC(N)=O)nc3c2)c1
inhibition at 1 µM [1]: 34.6%

NC(=O)Cc1nc2cc(OCc3ccccc3F)ccc2[nH]1
inhibition at 1 µM [1]: 10.1%

NC(=O)Cc1nc2cc(C(=O)Nc3cccc(Cl)c3)ccc2[nH]1
inhibition at 1 µM [1]: 47.6%

Cc1ccc(COc2ccc3[nH]c(CC(N)=O)nc3c2)cc1
inhibition at 1 µM [1]: 8.29%

COc1ccc2[nH]c(CC(N)=O)nc2c1
inhibition at 1 µM [1]: 0.93%

NC(=O)Cc1nc2cc(C(=O)Nc3ccccc3)ccc2[nH]1
inhibition at 1 µM [1]: 29.9%

NC(=O)Cc1nc2cc(OCc3ccccc3Cl)ccc2[nH]1
inhibition at 1 µM [1]: 8.15%

COc1ccccc1NC(=O)c1ccc2[nH]c(CC(N)=O)nc2c1
inhibition at 1 µM [1]: 24.8%

Cc1ccc(NC(=O)c2ccc3[nH]c(CC(N)=O)nc3c2)cc1C
inhibition at 1 µM [1]: 31.3%

C#CCN(C)Cc1ccccc1 [PARGYLINE]
inhibition at 1 µM [1]: 62.9%

NC(=O)Cc1nc2cc(OCc3ccc(C(F)(F)F)cc3)ccc2[nH]1
inhibition at 1 µM [1]: 52.2% | pIC50 [2]: 6.79

Cc1ccccc1COc1ccc2[nH]c(CC(N)=O)nc2c1
inhibition at 1 µM [1]: 5.6%

NC(=O)Cc1nc2cc(OCc3ccc(Cl)cc3)ccc2[nH]1
pIC50 [3]: 4.50 | inhibition at 1 µM [1]: 58.5% | pIC50 [2]: 6.35

NC(=O)Cc1nc2cc(C(=O)Nc3ccccc3F)ccc2[nH]1
inhibition at 1 µM [1]: 44%

Cc1cccc(NC(=O)c2ccc3[nH]c(CC(N)=O)nc3c2)c1C
inhibition at 1 µM [1]: 27.2%

COc1cccc(COc2ccc3[nH]c(CC(N)=O)nc3c2)c1
inhibition at 1 µM [1]: 5.84%

NC(=O)Cc1nc2cc(C(=O)Nc3cccc(F)c3)ccc2[nH]1
inhibition at 1 µM [1]: 39.6%

NC(=O)Cc1nc2cc(OCc3ccccc3)ccc2[nH]1
inhibition at 1 µM [1]: 14.3%

Cc1ccccc1NC(=O)c1ccc2[nH]c(CC(N)=O)nc2c1
inhibition at 1 µM [1]: 31.8%

NC(=O)Cc1nc2cc(OCc3cccc(Cl)c3)ccc2[nH]1
inhibition at 1 µM [1]: 67.3% | pIC50 [2]: 6.53

Cc1ccc(NC(=O)c2ccc3[nH]c(CC(N)=O)nc3c2)cc1
inhibition at 1 µM [1]: 29.6%

COc1ccc(NC(=O)c2ccc3[nH]c(CC(N)=O)nc3c2)cc1
inhibition at 1 µM [1]: 28.5%
